Structures are written as SMILES.

For the assay, the target named is T1, GLUT1 (Homo sapiens, UniProt P11166).
T1 construct: endogenous in cells
T1 sequence (P11166 1-492): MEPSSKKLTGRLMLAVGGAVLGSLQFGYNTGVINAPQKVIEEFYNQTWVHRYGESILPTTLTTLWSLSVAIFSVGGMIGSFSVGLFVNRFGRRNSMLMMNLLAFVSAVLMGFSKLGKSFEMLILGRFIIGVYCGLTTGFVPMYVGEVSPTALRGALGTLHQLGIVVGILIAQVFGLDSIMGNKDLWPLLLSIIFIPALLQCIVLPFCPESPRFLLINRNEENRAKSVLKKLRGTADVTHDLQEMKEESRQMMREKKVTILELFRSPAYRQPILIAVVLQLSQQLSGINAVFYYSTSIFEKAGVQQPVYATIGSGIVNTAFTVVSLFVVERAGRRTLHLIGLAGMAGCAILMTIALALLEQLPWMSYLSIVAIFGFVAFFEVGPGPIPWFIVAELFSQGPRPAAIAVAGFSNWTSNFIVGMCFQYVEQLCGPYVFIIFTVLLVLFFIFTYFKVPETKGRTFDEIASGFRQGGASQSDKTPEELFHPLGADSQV
Kind of assay: Indirect measurement of GLUT activity by quantification of intracellular ATP levels (glucose induced ATP increase). In kind it is cell-based. The note with it: DLD1 cells; 1 mM glucose, 1 uM Rotenone, 15 min; standardized to cytochalasin B IC50 values; read-out: IC50 regarding glucose induced ATP increase (GLUT1 inhibition). The source says: It is well known that a combination of small-molecule inhibitors of mitochondrial electron transport chain and glucose catabolism synergistically suppress ATP production and impair cellular viability (Ulanovskaya et al., 2008, 2011; Liu, et al. 2001). We therefore used DLD1 or CHO-K1 cells in combination with an oxidative phosphorylation inhibitor to identify GLUT inhibitors. Cell lines were maintained in DMEM medium supplemented with 10% FCS and 1% Penicillin-Streptomycin solution and 2% Glutamax. The cells were treated with trypsin and seeded into 384 plates at a density of 4000 cells/well. The cells were then cultured overnight in glucose free media containing 1% FCS to reduce intracellular ATP levels. After 24 h the cells were incubated at 37° C. containing the appropriate glucose or in case of GLUT2 fructose concentration (1 mM and 30 mM respectively) with or without compounds and 1 uM Rotenone for 15 min. The CellTiter-Glo® Luminescent Cell Viability Assay from Promega was then used to measure ATP levels. Compounds able to reduce the ATP Levels within 15 min of glucose application were considered to be glucose uptake inhibitors.
In the case of `Cc1nn(Cc2ccn(C)n2)cc1NC(=O)c1cc(C(N)=O)nc2ccccc12` [Example 63, N^4-{3-methyl-1-[(1-methyl-1H-pyrazol-3-yl)methyl]-1H-pyrazol-4-yl}quinoline-2,4-dicarboxamide], the IC50 amounted to 190 nM.

In the case of `N#Cc1ccc(Cn2cc(NC(=O)c3cc(C(N)=O)nc4ccccc34)c(C(F)(F)F)n2)cc1` [Example 39, N^4-[1-(4-cyanobenzyl)-3-(trifluoromethyl)-1H-pyrazol-4-yl]quinoline-2,4-dicarboxamide], the IC50 was determined as 20 nM.

Consider `CS(=O)(=O)c1ccc(Cn2cc(NC(=O)c3cc(C(N)=O)nc4cc(F)ccc34)c(C(F)(F)F)n2)cc1` [Example 45, 7-fluoro-N^4-{1-[4-(methylsulfonyl)benzyl]-3-(trifluoromethyl)-1H-pyrazol-4-yl}quinoline-2,4-dicarboxamide], for which the IC50 came to 126 nM.

Regarding `O=C(Nc1cn(Cc2ccc(F)cc2)nc1C(F)(F)F)c1cc(C(F)(F)F)nc2ccc(Br)cc12` [Example 31, 6-bromo-N-[1-(4-fluorobenzyl)-3-(trifluoromethyl)-1H-pyrazol-4-yl]-2-(trifluoromethyl)quinoline-4-carboxamide], the 50% inhibitory concentration (IC50) is 1180 nM.

Take `COc1ccc(Cn2cc(NC(=O)c3cc(C(F)(F)F)nc4ccc(Br)cc34)c(C(F)(F)F)n2)cc1` [Example 47, 6-bromo-N-[1-(4-methoxybenzyl)-3-(trifluoromethyl)-1H-pyrazol-4-yl]-2-(trifluoromethyl)quinoline-4-carboxamide]: the IC50 turned out to be 138 nM.

Turning to `COc1ccc(Cn2cc(NC(=O)c3cc(C(F)(F)F)nc4ccc(Br)cc34)c(C)n2)cc1` [Example 12, 6-bromo-N-[1-(4-methoxybenzyl)-3-methyl-1H-pyrazol-4-yl]-2-(trifluoromethyl)quinoline-4-carboxamide], the IC50 amounted to 29 nM.

For `COC(=O)c1nn(Cc2ccc(C#N)cc2)cc1NC(=O)c1cc(C(F)(F)F)nc2ccc(Br)cc12` [Example 24, methyl 4-({[6-bromo-2-(trifluoromethyl)quinolin-4-yl]carbonyl}amino)-1-(4-cyanobenzyl)-1H-pyrazole-3-carboxylate], the IC50 was determined as 1650 nM.

For `CCc1noc(Cn2cc(NC(=O)c3cc(C(N)=O)nc4ccccc34)c(C)n2)n1` [Example 66, N^4-{1-[(3-ethyl-1,2,4-oxadiazol-5-yl)methyl]-3-methyl-1H-pyrazol-4-yl}quinoline-2,4-dicarboxamide], the IC50 was 430 nM.

As to `Cc1nn(Cc2ccc(C#N)cc2)cc1NC(=O)c1cc(C(N)=O)nc2cc(F)c(Cl)cc12` [Example 53, 6-chloro-N^4-[1-(4-cyanobenzyl)-3-methyl-1H-pyrazol-4-yl]-7-fluoroquinoline-2,4-dicarboxamide], the IC50 was determined as 4 nM.

For the compound `Cc1nn(Cc2ccc(F)cc2)cc1NC(=O)c1cc(C(F)(F)F)nc2c(Cl)cc(Cl)cc12` [Example 7, 6,8-dichloro-N-[1-(4-fluorobenzyl)-3-methyl-1H-pyrazol-4-yl]-2-(trifluoromethyl)quinoline-4-carboxamide], the IC50 turned out to be 176 nM.

`CC(C)c1nn(Cc2ccc(C#N)cc2)cc1NC(=O)c1cc(C(N)=O)nc2cc(F)ccc12` [Example 62, N^4-[1-(4-cyanobenzyl)-3-isopropyl-1H-pyrazol-4-yl]-7-fluoroquinoline-2,4-dicarboxamide]: the IC50 turned out to be 120 nM.

In the case of `COc1ccc(Cn2cc(NC(=O)c3cc(OC)nc4ccccc34)c(C(F)(F)F)n2)cc1` [Example 48, 2-methoxy-N-[1-(4-methoxybenzyl)-3-(trifluoromethyl)-1H-pyrazol-4-yl]quinoline-4-carboxamide], the half-inhibitory concentration (IC50) worked out at 193 nM.

As for `COCCNC(=O)c1nn(Cc2ccc(C#N)cc2)cc1NC(=O)c1cc(C(F)(F)F)nc2ccc(Br)cc12` [Example 30, 6-bromo-N-{1-(4-cyanobenzyl)-3-[(2-methoxyethyl)carbamoyl]-1H-pyrazol-4-yl}-2-(trifluoromethyl)quinoline-4-carboxamide], the IC50 was 7490 nM.

Take `Cc1nn(Cc2ccncc2)cc1NC(=O)c1cc(C(N)=O)nc2ccccc12` [Example 58, N^4-[3-methyl-1-(pyridin-4-ylmethyl)-1H-pyrazol-4-yl]quinoline-2,4-dicarboxamide]: the IC50 came to 702 nM.

As for `N#Cc1ccc(Cn2cc(NC(=O)c3cc(C(F)(F)F)nc4ccc(Br)cc34)c(C(N)=O)n2)cc1` [Example 28, 6-bromo-N-[3-carbamoyl-1-(4-cyanobenzyl)-1H-pyrazol-4-yl]-2-(trifluoromethyl)quinoline-4-carboxamide], the IC50 is 544 nM.

Consider `Cc1cc(Cn2cc(NC(=O)c3cc(C(F)(F)F)nc4ccc(Br)cc34)c(C)n2)no1` [Example 71, 6-bromo-N-{3-methyl-1-[(5-methyl-1,2-oxazol-3-yl)methyl]-1H-pyrazol-4-yl}-2-(trifluoromethyl)quinoline-4-carboxamide], for which the concentration for half-maximal inhibition (IC50) was 294 nM.

With `COc1ccc(Cn2cc(NC(=O)c3cc(OC)nc4ccccc34)c(C)n2)cc1` [Example 11, 2-methoxy-N-[1-(4-methoxybenzyl)-3-methyl-1H-pyrazol-4-yl]quinoline-4-carboxamide], the IC50 was 21 nM.

Regarding `Cc1nn(Cc2ccc(F)cc2)cc1NC(=O)c1cc(C2CC2)nc2ccc(F)cc12` [Example 6, 2-cyclopropyl-6-fluoro-N-[1-(4-fluorobenzyl)-3-methyl-1H-pyrazol-4-yl]quinoline-4-carboxamide], the 50% inhibitory concentration (IC50) was determined as 125 nM.

`CCS(=O)(=O)N1CCC(Cn2cc(NC(=O)c3cc(C(N)=O)nc4ccccc34)c(C)n2)CC1` [Example 72, N^4-(1-{[1-(ethylsulfonyl)piperidin-4-yl]methyl}-3-methyl-1H-pyrazol-4-yl)quinoline-2,4-dicarboxamide]: the IC50 is 247 nM.

For `COc1ccc(Cn2cc(NC(=O)c3cc(C(N)=O)nc4cc(F)ccc34)c(C(F)(F)F)n2)cc1` [Example 50, 7-fluoro-N^4-[1-(4-methoxybenzyl)-3-(trifluoromethyl)-1H-pyrazol-4-yl]quinoline-2,4-dicarboxamide], the IC50 amounted to 3.9 nM.

`O=C(Nc1cn(Cc2ccc(F)cc2)nc1C(F)(F)F)c1cc(C(F)(F)F)nc2cc(F)c(F)cc12` [Example 34, 6,7-difluoro-N-[1-(4-fluorobenzyl)-3-(trifluoromethyl)-1H-pyrazol-4-yl]-2-(trifluoromethyl)quinoline-4-carboxamide]: the IC50 worked out at 2040 nM.

As for `CNC(=O)c1nc(Cn2cc(NC(=O)c3cc(C(F)(F)F)nc4ccc(Br)cc34)c(C)n2)no1` [Example 69, 6-bromo-N-(3-methyl-1-{[5-(methylcarbamoyl)-1,2,4-oxadiazol-3-yl]methyl}-1H-pyrazol-4-yl)-2-(trifluoromethyl)quinoline-4-carboxamide], the IC50 was found to be 64 nM.

In the case of `Cc1nn(Cc2ccc(C#N)cc2)cc1NC(=O)c1cc(C(N)=O)nc2cc(F)ccc12` [Example 52, N^4-[1-(4-cyanobenzyl)-3-methyl-1H-pyrazol-4-yl]-7-fluoroquinoline-2,4-dicarboxamide], the IC50 is 3.1 nM.

Turning to `COc1ccc(Cn2cc(NC(=O)c3cc(C(N)=O)nc4ccccc34)c(C(F)(F)F)n2)cc1` [Example 49, N^4-[1-(4-methoxybenzyl)-3-(trifluoromethyl)-1H-pyrazol-4-yl]quinoline-2,4-dicarboxamide], the IC50 is 4.1 nM.

Regarding `N#Cc1ccc(Cn2cc(NC(=O)c3cc(C(N)=O)nc4cc(F)c(Cl)cc34)c(C(F)(F)F)n2)cc1` [Example 35, 6-chloro-N^4-[1-(4-cyanobenzyl)-3-(trifluoromethyl)-1H-pyrazol-4-yl]-7-fluoroquinoline-2,4-dicarboxamide], the IC50 turned out to be 4.4 nM.

Turning to `N#Cc1ccc(Cn2cc(NC(=O)c3cc(C(F)(F)F)nc4ccc(Br)cc34)c(C(=O)O)n2)cc1` [Example 25, 4-({[6-bromo-2-(trifluoromethyl)quinolin-4-yl]carbonyl}amino)-1-(4-cyanobenzyl)-1H-pyrazole-3-carboxylic acid], the concentration for half-maximal inhibition (IC50) amounted to 10200 nM.

On to `COc1cc(C(=O)Nc2cn(Cc3ccccc3C#N)nc2C)c2ccccc2n1` [Example 15, N-[1-(2-cyanobenzyl)-3-methyl-1H-pyrazol-4-yl]-2-methoxyquinoline-4-carboxamide], for which the IC50 amounted to 116 nM.

With `Cc1nn(Cc2ccn(C)n2)cc1NC(=O)c1cc(C(F)(F)F)nc2ccc(Br)cc12` [Example 73, 6-bromo-N-{3-methyl-1-[(1-methyl-1H-pyrazol-3-yl)methyl]-1H-pyrazol-4-yl}-2-(trifluoromethyl)quinoline-4-carboxamide], the IC50 was 172 nM.

Consider `NC(=O)c1cc(C(=O)Nc2cn(Cc3ccncc3)nc2C(F)(F)F)c2ccccc2n1` [Example 41, N^4-[1-(pyridin-4-ylmethyl)-3-(trifluoromethyl)-1H-pyrazol-4-yl]quinoline-2,4-dicarboxamide], for which the IC50 is 422 nM.

One may read the IC50 as the midpoint of a concentration-inhibition curve.

These data come from patent US20170226081A1, “GLUCOSE TRANSPORT INHIBITORS” (Bayer Pharma Aktiengesellschaft, priority 2014, published 2017).
